Target: hemopexin (Homo sapiens, UniProt P02790)
Experiment: biochemical

Chain of hemopexin (P02790 24-462): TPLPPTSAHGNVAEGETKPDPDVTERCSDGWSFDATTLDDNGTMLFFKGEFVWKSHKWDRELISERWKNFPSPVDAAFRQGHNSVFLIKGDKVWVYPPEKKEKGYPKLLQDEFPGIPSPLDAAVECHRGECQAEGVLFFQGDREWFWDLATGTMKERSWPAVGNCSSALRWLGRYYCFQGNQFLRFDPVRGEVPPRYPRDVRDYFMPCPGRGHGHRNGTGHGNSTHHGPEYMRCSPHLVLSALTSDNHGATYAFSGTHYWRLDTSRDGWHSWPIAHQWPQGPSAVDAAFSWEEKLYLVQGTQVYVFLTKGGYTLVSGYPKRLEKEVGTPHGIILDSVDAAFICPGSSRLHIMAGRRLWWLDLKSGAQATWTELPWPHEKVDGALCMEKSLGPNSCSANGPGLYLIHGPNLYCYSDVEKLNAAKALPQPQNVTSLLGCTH

## C=CC1=C(C)C2=Cc3c(C=C)c(C)c4[n]3[Fe+][n]3c(c(C)c(CCC(=O)O)c3=CC3=NC(=C4)C(C)=C3CCC(=O)O)=CC1=N2 [heme]
  Kd: 0.32 ± 0.04 nM
